Source: patent US20090208462A1, “Methods of Treatment” (IMPERIAL INNOVATIONS LIMITED, priority 2004, published 2009)
“Also recorded” adds a separate entry of the source.

Experiments:
[1] = test system: melanopsin transduction cascade; experiment: Properties of the melanopsin transduction cascade: drug effects on light evoked current; type: cell-based, mouse; conditions: for effect on light evoked currents: 420 nm 10 sec 8×10^14 photons/cm^2/s; for effect on light evoked currents / effect on photoresponses / effect on light induced current / effect on light evoked current: 9-cis retinal 20 μM; for effect on photoresponses / effect on light induced current / effect on light evoked current: 420 nm 10 sec
Procedure: (§1) Mouse Neuro-2a cells (American Type Culture Collection; Cat no. CCL-131) were maintained at 37° C. in D-MEM, Dulbecco's Modified Eagle Medium with GlutaMAX™ I, 4500 mg/l D-Glucose, Sodium Pyruvate (D-MEM, Invitrogen) with 10% foetal bovine serum, 1% non-essential amino acids and 20 μg/ml gentomycin in a 5% CO2 atmosphere. Cells were trypsintsed, split and cultured at 1×10^5/ml in 90 mm dishes for 24 hours prior to transfection with plasmid vectors using lipofectamine (Invitrogen) in serum-free medium. DNA to lipid ratio was 10 μg DNA: 100 μg lipid. After transfection serum free medium was replaced with normal medium. On the following day, 2-3 days before study, cell differentiation was induced using 10 μM retinoic acid (Provencio et al., 2000). Starting from this point cells were kept in darkness. On the day of recording, glass coverslips serving as a substrate for cell attachment were transferred to the recording chamber. The perfusion solution contained 140 mM NaCl, […], 1 mM MgCl2, 2 mM CaCl2, 5 mM glucose, 10 mM HEPES (pH 7.3-7.4; 24° C.). Successfully transfected cells were identified by EGFP fluorescence under a 480 nm stimulus light using an OLYMPUS BX51WI microscope. At this point, retinal isoforms (20 μM; 9-cis and all-trans from Sigma-Aldrich; 11-cis from Dr R K Crouch, Medical University of S.C.) were added to the perfusion solution as necessary and cells kept in the dark for at least 1 hour before recording. Whole-cell patch-clamp recordings were made with pipettes containing 140 mM KCl, 10 mM NaCl, 1 mM MgCl2, 10 mM HEPES, 10 mM EGTA. Osmolarity was adjusted to 285±5 mosmol (milliosmol) 1^−1 and pH to 7.3-7.4 with KOH. Open pipette resistance was 2-5 MΩ (mega-ohms), and access resistance during recordings was <20 MΩ. Currents were recorded (Axopatch 200B, Axon Instruments) in neurons voltage clamped at holding potentials of −50 mV (milli-volt). The records were filtered at 1 kHz (kilohertz) and sampled at 20 kHz. Drugs were obtained from Sigma Aldrich, with the exception of NEM (N-ethylmaledomide) (Calbiochem), and DL-AP5, NF023, KT5720, U73122 and thapsigargin (all Tocris Cookson), drugs applied in superfusion were applied for 15-20 minutes prior to light stimulation.
(§2) Light stimuli were generated using a Cairn Optoscan Xenon arc source comprising a slit monochromator. Unless otherwise stated al stimuli were 10 sec in duration with a 20 nm half-bandwidth. Irradiance was measured using an optical powermeter (Macam Photometrics) and converted to photon flux. […] The nature of glutamate receptor expression in Neuro-2a cells remains ambiguous, nonetheless we excluded the possibility that this might be the origin of the melanopsin light response by application of the selective NMDA antagonist APV (2-amino-5-phosphonovaleric acid) (100 μM) which had no effect upon the light sensitive current (data not shown)

[2] = molecular target: T1, human melanopsin (Homo sapiens, UniProt Q9UHM6); experiment: Retinaldehyde dependence of the light evoked current in melanopsin expressing cells; type: cell-based; conditions: for light-induced response to 540 nm stimulation itself: 20 nm half-bandwidth; for light evoked peak inward current after retinal preloading / change in 420 nm light evoked current after 540 nm light exposure: retinal 20 μM; for light evoked peak inward current after retinal preloading: 1 hour, 420 nm, 8×10^14 photons/cm^2/sec; for change in 420 nm light evoked current after 540 nm light exposure: 540 nm 10 mins (2×10^14 photons/cm^2/s), retest 420 nm 10 sec
T1 construct: expressed in transfected cells; host or cells: Mouse Neuro-2a cells (ATCC CCL-131), lipofectamine transfection with the pCMS-EGFP-based melanopsin vector, differentiated with retinoic acid
T1 sequence (Q9UHM6 1-478): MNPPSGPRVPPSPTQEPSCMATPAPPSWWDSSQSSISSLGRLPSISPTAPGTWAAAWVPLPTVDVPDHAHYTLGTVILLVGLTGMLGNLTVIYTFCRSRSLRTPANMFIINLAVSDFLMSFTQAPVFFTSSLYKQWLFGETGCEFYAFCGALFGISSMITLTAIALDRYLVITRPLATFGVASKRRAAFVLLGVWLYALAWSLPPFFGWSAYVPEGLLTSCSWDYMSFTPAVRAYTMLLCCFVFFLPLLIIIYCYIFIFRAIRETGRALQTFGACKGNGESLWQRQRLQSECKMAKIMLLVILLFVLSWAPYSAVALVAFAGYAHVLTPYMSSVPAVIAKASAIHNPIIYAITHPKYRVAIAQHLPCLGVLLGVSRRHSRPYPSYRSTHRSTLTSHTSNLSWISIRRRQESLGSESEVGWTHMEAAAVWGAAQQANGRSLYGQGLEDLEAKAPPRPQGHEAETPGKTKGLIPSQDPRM
Procedure: as §1, §2

[3] = test system: Neuro-2a cells; experiment: Whole cell recordings of light evoked current in Neuro-2a cells expressing human melanopsin; type: cell-based, mouse
From the text: The full length coding sequence of human melanopsin was amplified from retinal cDNA using Pfu-Turbo DNA polymerase (Stratagene) and the following restriction tagged primers: […]
The product was cloned into the pLITMUS28 Vector (New England Biolabs) and sequenced to confirm that there was no deviation from the reported sequence NM_033282; SEQ ID NO: 1). The product was subsequently cloned into the pCMS-EGFP vector (BD Biosciences), such that expression would be driven by the CMV immediate early promoter. A C-terminal 6×His-tagged melanopsin construct was generated in a similar manner, using the following primers: […]
as §1, §2

[4] = test system: Neuro-2a cells; experiment: Spectral sensitivity of the light evoked current (pCI-neo human melanopsin); type: cell-based, mouse; conditions: 11-cis retinal, mean±SEM
Procedure: For analyses of spectral sensitivity EGFP expression was excluded by employing the pCI-neo mammalian expression vector (Promega).
as §1, §2
In order to assess the correspondence, if any, between the Neuro-2a light response and these action spectra we assessed cellular responses to stimuli ranging from 300 to 540 nm in cells transfected with a pCI-neo expression vector (Promega) driving human melanopsin. EGFP was not included as a marker of expression for these experiments because of its light absorbing and fluorescent properties. […]

## CCN1C(=O)C=CC1=O [NEM, N-ethylmaledomide]
[1]; 50 μM in bath
  effect on light evoked currents: no effect
[1]; 50 μM in bath, listed as N-ethyl
  effect on light evoked currents: did not antagonise

## Cc1ccc(C(=O)Nc2ccc(S(=O)(=O)O)c3cc(S(=O)(=O)O)cc(S(=O)(=O)O)c23)cc1NC(=O)c1cccc(NC(=O)Nc2cccc(C(=O)Nc3cc(C(=O)Nc4ccc(S(=O)(=O)O)c5cc(S(=O)(=O)O)cc(S(=O)(=O)O)c45)ccc3C)c2)c1 [suramin]
[1]; 100 μM in bath
  effect on photoresponses: largely abolished; also recorded: abolish

## COc1ccc2c(c1)CC[C@@H]1[C@@H]2CC[C@]2(C)[C@@H](NCCCCCCN3C(=O)C=CC3=O)CC[C@@H]12 [U73122]
[1]; 50 μM
  effect on light induced current: did not affect; also recorded: did not block

## CC1=C(/C=C/C(C)=C/C=C/C(C)=C/C=O)C(C)(C)CCC1 [all-trans retinal]
[2]
  light-induced response to 540 nm stimulation itself: did not in itself evoke
  light evoked peak inward current after retinal preloading: modest light response
  change in 420 nm light evoked current after 540 nm light exposure: large increase; also recorded: three-fold increase

## [Cd+2] [Cd^2+]
[1]; 100 μM, and/or removal of calcium from perfusate
  effect on light evoked current: little significant effect

## CC1=C(/C=C/C(C)=C/C=C/C(C)=C/C=O)C(C)(C)CCC1 [11-cis retinal]
[2]
  light evoked peak inward current after retinal preloading: Significant photosensitivity; also recorded: significantly more effective
[2]; listed as 11-cis-retinal
  light evoked peak inward current after retinal preloading: more responsive

## Nc1nc2c(nc(Br)n2[C@@H]2O[C@@H]3COP(=O)(O)O[C@H]3[C@H]2O)c(=O)[nH]1 [8-Br-cGMP]
[1]; 1 mM in pipette
  effect on light response: abolished
[1]; in patch pipette, 100 μM and 1 nM
  effect on light induced current: dose dependent suppression

## CC1=C(/C=C/C(C)=C\C=C\C(C)=C\C=O)C(C)(C)CCC1 [9-cis retinal]
[2]
  light-induced response to 540 nm stimulation itself: did not in itself evoke
  light evoked peak inward current after retinal preloading: Significant photosensitivity
  change in 420 nm light evoked current after 540 nm light exposure: only a small potentiation
[2]; listed as 9-cis-retinal
  light evoked peak inward current after retinal preloading: more responsive

## C/C=C(/C)C(=O)O[C@H]1C(C)=C2[C@H]([C@@H]1OC(=O)CCCCCCC)[C@@](C)(OC(C)=O)C[C@H](OC(=O)CCC)[C@@]1(O)[C@H]2OC(=O)[C@@]1(C)O [thapsigargin]
[1]; 5 to 10 μM in zero calcium perfusates for 15-20 mins
  effect on light evoked current: abolished

## Cn1cc(C2=C(c3cn(CCCSC(=N)N)c4ccccc34)C(=O)NC2=O)c2ccccc21 [RO31-8220]
[1]; 100 nM
  effect on light induced current: did not affect

## Nc1nc2c(ncn2[C@@H]2O[C@H](COP(=O)(O)OP(=O)(O)OP(O)(O)=S)[C@@H](O)[C@H]2O)c(=O)[nH]1 [GTPγS]
[1]; 1 mM in patch pipette
  effect on photoresponses: largely abolished; also recorded: abolish

## O=C(Nc1cccc(C(=O)Nc2ccc(S(=O)(=O)O)c3cc(S(=O)(=O)O)cc(S(=O)(=O)O)c23)c1)Nc1cccc(C(=O)Nc2ccc(S(=O)(=O)O)c3cc(S(=O)(=O)O)cc(S(=O)(=O)O)c23)c1 [NF023]
[1]; up to 1 μM in bath
  effect on light evoked currents: no effect; also recorded: did not antagonise

## CCCCCCOC(=O)[C@]1(O)C[C@@H]2O[C@@]1(C)n1c3ccccc3c3c4c(c5c6ccccc6n2c5c31)C(=O)NC4 [KT5720]
[1]; 1 μM
  effect on light induced current: did not affect

## NC(CCCP(=O)(O)O)C(=O)O (racemic) [APV, 2-amino-5-phosphonovaleric acid]
[1]; 100 μM, data not shown
  effect upon the light sensitive current: no effect

B1: human melanopsin: opsin photoactivator, SEQ ID NO:2, expressed from CMV-driven plasmid vector in Neuro-2a cells (protein, listed as Homo sapiens)
chain: MNSGRVSTSCMATASWWDSSSSSSGRSSTAGTWAAAWVTVDVDHAHYTGTVVGTGMGNTVYTCRSRSRTANMNAVSDMSTAVTSSYKWGTGCYACGAGSSMTTAADRYVTRATGVASKRRAAVGVWYAAWSGWSAYVGTSCSWDYMSTAVRAYTMCCVYCYRARTGRATGACKGNGSWRRSCKMAKMVVSWAYSAVAVAAGYAHVTYMSSVAVAKASAHNYATHKYRVAAHCGVGVSRRHSRYSYRSTHRSTTSHTSNSWSRRRSGSSVGWTHMAAAVWGAAANGRSYGGDAKARGHATGKTKGSDRM
modifications: Human melanopsin
[3]; 420 nm, 10 sec, 8×10^13 or 8×10^14 photons/cm^2/sec, whole cell recording
  light evoked current, intensity dependence: intensity dependent sustained inward current
[3]; Neuro-2a cells expressing human melanopsin, 9-cis retinal 20 μM, 1 hour, 420 nm, 10 sec stimulus
  cellular response to light exposure: marked cellular response
[3]; absence of exogenous retinal
  light sensitivity: not light sensitive
[3]; light-activated current, Neuro-2a cells
  reversal potential of the response: 0 to −10 mV
[3]; voltage ramp −100 to +100 mV, linear between −100 and −50 mV, 9-cis retinal, mean±SEM, n=13
  peak light evoked slope conductance: 6.46±0.82 nS
[4]; 360 nm, 3×10^14 photons/cm^2/s
  light evoked current: 72.5±19 pA
[4]; 420 nm, 8×10^14 photons/cm^2/s
  light evoked current: 80±11 pA
[4]; 440 nm, 2×10^15 photons/cm^2/s
  light evoked current: 32.7±14 pA
[4]; 490 nm
  light evoked current: 8.5±1.2 pA
[4]; 540 nm, 2×10^14 photons/cm^2/s
  light evoked current: 2.0±1.2 pA
